Legend:
[1] = test system: rat CCK-A receptors on CHO-CCKR cells; assay: Indirect immunofluorescence of surface CCK receptor after agonist occupation; assay type: cell-based, rat receptor in CHO cells; conditions: 10 nM CCK-8, 30 min, 37C
[2] = test system: dispersed rat pancreatic acini; conditions: core peptide for the probes; cited from earlier work

Row | Substance | Surface immunolabeling of the receptor, level relative to control cells [1] [%] | Biological activity of core peptide [2]
1 | CCK-8: native cholecystokinin hormone, nonfluorescent agonist | 49 | –
2 | GIy-[(NIe2S.31)CCK26-33] | – | fully biologically active

Reference: publication PMC2120418 (The Journal of Cell Biology, 1995)
